Molecules are shown by their SMILES.

In article PMC12336832, “A key loop in the catalytic pocket of the PL17 family of alginate lyases determines minimal substrate recognition” (The Journal of Biological Chemistry, 2025) one finds specific activity data, which are given here for two compounds.

Experiment [1] has as its target T1, VaAly17B (Vibrio alginolyticus, UniProt A0A2I3CRW2).
T1 construct: gene N646_4460; N-terminal His tag, E. coli BL21(DE3), plasmid pZLZ05; no signal peptide predicted; theoretical 81,023 Da
T1 sequence (A0A2I3CRW2 1-721): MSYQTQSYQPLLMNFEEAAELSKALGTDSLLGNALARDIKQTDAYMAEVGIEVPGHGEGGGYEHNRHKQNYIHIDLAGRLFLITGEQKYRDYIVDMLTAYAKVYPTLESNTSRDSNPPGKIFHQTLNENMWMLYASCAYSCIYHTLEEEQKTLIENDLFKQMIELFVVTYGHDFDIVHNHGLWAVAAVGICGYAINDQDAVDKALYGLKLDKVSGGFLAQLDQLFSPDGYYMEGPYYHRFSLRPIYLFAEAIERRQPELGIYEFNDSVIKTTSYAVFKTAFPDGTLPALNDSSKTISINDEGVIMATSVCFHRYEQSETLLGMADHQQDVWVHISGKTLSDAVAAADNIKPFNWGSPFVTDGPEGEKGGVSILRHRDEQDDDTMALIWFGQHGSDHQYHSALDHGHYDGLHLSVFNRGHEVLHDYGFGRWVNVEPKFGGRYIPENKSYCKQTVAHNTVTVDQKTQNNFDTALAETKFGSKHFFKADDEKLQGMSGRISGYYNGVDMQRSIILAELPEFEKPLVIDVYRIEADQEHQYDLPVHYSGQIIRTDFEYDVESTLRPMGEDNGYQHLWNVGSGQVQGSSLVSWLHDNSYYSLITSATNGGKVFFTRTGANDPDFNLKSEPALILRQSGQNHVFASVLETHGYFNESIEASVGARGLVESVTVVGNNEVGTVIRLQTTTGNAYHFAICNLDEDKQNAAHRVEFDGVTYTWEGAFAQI
Briefly: TBA assay, TLC, gel filtration HPLC, ESI-MS. The following applies: pH 8.0, 200 mM NaCl, 20 °C, 0.3% substrate. The class given is biochemical. (In general: Size exclusion chromatography separates by hydrodynamic size, large species first.)

Experiment [2] has as its target T2, VaAly17A (Vibrio alginolyticus, UniProt A0A2I3CRJ2).
T2 construct: gene N646_4459; N-terminal His tag, E. coli BL21(DE3), plasmid pZLZ04; no signal peptide predicted; theoretical 81,525 Da
T2 sequence (A0A2I3CRJ2 1-721): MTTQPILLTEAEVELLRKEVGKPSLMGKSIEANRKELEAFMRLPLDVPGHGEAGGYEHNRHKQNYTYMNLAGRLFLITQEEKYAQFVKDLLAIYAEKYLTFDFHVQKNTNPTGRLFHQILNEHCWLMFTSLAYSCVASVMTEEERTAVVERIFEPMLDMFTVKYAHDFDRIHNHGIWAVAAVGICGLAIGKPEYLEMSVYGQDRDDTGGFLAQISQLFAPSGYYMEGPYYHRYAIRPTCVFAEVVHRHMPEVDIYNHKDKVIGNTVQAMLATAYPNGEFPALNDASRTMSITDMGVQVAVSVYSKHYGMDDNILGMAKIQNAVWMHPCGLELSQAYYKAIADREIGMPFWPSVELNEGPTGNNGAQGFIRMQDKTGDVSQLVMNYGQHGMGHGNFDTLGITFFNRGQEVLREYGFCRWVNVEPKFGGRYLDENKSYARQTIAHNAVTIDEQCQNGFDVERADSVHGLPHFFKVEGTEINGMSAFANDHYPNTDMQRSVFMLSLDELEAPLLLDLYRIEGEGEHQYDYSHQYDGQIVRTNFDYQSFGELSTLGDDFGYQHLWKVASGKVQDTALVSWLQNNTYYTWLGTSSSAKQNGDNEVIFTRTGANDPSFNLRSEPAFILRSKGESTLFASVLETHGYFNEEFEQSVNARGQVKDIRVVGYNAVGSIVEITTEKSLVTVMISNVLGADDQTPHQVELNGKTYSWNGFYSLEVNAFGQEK
Put plainly: TBA assay, TLC, gel filtration HPLC, ESI-MS. The class given is biochemical. The settings on record: pH 8.0, 200 mM NaCl, 30 °C, 0.3% substrate; exolytic, from the nonreducing end.

As for `O=C(O)[C@H]1O[C@@H](O[C@H]2[C@H](O)[C@H](O)C(O)O[C@@H]2C(=O)O)[C@@H](O)[C@@H](O)[C@@H]1O` (some centres unmarked) [M2, Dimer-M2], in experiment [1], the specific activity entry is given as “VaAly17B could degrade M2 into monomers”.
Consider `O=C(O)[C@H]1O[C@@H](O[C@H]2[C@H](O)[C@H](O)[C@H](O[C@H]3[C@H](O)[C@H](O)C(O)O[C@@H]3C(=O)O)O[C@@H]2C(=O)O)[C@@H](O)[C@@H](O)[C@@H]1O` (some centres unmarked) [M3, Trimer-M3], for which the specific activity entry in experiment [2] was “unsaturated M2 was produced when M3 was used as the substrate”.
